Source: ChEMBL document CHEMBL1667794, “Synthesis of bi-substrate state mimics of dihydropteroate synthase as potential inhibitors and molecular probes” (Bioorg Med Chem, 2011)

What was measured:
[1] = biological target: T1, Dihydropteroate synthase (Bacillus anthracis) (UniProt Q81VW8); test: Inhibition of Bacillus anthracis DHPS at 200 uM
T1 sequence (whole entry): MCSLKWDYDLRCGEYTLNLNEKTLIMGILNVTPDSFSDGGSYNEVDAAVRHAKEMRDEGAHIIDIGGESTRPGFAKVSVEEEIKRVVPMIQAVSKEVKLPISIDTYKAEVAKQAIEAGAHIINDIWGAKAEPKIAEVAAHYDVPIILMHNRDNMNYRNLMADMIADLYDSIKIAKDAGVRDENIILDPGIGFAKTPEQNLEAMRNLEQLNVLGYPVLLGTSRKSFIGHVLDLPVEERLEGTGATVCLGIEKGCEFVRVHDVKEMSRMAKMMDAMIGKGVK

[2] = biological target: T1, Dihydropteroate synthase (Bacillus anthracis); test: Inhibition of Bacillus anthracis DHPS at 200 uM after 10 mins

Structure (SMILES)	inhibition [1] [%]	inhibition [2] [%]
Nc1nc2ncc(N(CCCP(=O)(O)O)Cc3ccc(C(=O)O)cc3)cc2c(=O)[nH]1	32.9	44.3
Nc1nc2c(c(=O)[nH]1)CC(N(CCP(=O)(O)O)Cc1ccc(C(=O)O)cc1)CN2 (stereo not drawn)	3.6	5.7
Nc1nc2c(c(=O)[nH]1)C[C@@H](N(CCCP(=O)(O)O)Cc1ccc(C(=O)O)cc1)CN2	3.9	6.3
Nc1nc2ncc(N(CCP(=O)(O)O)Cc3ccc(C(=O)O)cc3)cc2c(=O)[nH]1	16.3	30.5
